The results in this text go back to ChEMBL document CHEMBL5223108, “Aiming to improve binding of porphyrin diphenyl guanidinium conjugates to guanine-quadruplexes: When size matters” (Bioorg Med Chem Lett, 2022).

Structures are written as SMILES. Activity calls are given as the source filed them. The calls are words filed in the database; no cut-off is given here.

The subject of experiment [1] is Quadruplex DNA. Description: Binding affinity to human c-KIT1 G4 quadruplex DNA assessed as change in melting temperature at 10 uM by UV analysis. In kind it is nucleic-acid assay.
Experiment [2] deals with Quadruplex DNA. The experiment is described as follows: Binding affinity to human 22AG_Na G4 quadruplex DNA assessed as change in melting temperature at 10 uM by UV analysis. It is filed as nucleic-acid assay.
In experiment [3] the test system is Quadruplex DNA. The experiment is described as follows: Binding affinity to human c-KIT2 G4 quadruplex DNA assessed as change in melting temperature at 10 uM by UV analysis. It is filed as nucleic-acid assay.
Experiment [4] deals with Quadruplex DNA. Description: Binding affinity to KRAS G4 quadruplex DNA (unknown origin) assessed as change in melting temperature at 1:2 G4:ligand ratio by UV analysis (reference value: 48.7 degreeC). In kind it is nucleic-acid assay.
Experiment [5] has as its system Quadruplex DNA. The experiment is described as follows: Binding affinity to c-KIT1 G4 quadruplex DNA (unknown origin) assessed as change in melting temperature at 1:2 G4:ligand ratio by UV analysis (reference value: 66.5 degreeC). In kind it is nucleic-acid assay.
Experiment [6] deals with Quadruplex DNA. Description: Binding affinity to 23TA G4 quadruplex DNA (unknown origin) assessed as change in melting temperature at 1:2 G4:ligand ratio by UV analysis (reference value: 59.5 degreeC). In kind it is nucleic-acid assay.
The subject of experiment [7] is Salmonidae. The experiment is described as follows: Binding affinity to salmon testes […] DNA assessed as change in melting temperature at 1:2 […] ratio by UV analysis (reference value: 66.6 degreeC).
The subject of experiment [8] is Quadruplex DNA. Description: Binding affinity to 22AG_Na G4 quadruplex DNA (unknown origin) by CD spectroscopy analysis. In kind it is nucleic-acid assay.
Experiment [9] deals with Quadruplex DNA. Description: Binding affinity to 22AG_Na G4 quadruplex DNA (unknown origin) assessed as change in melting temperature at 1:2 G4:ligand ratio by UV analysis (reference value: 55.9 degreeC). In kind it is nucleic-acid assay.
The subject of experiment [10] is Quadruplex DNA. The experiment is described as follows: Binding affinity to c-KIT2 G4 quadruplex DNA (unknown origin) assessed as change in melting temperature at 1:2 G4:ligand ratio by UV analysis (reference value: 59.1 degreeC). It is filed as nucleic-acid assay.
For experiment [11], the system named is Quadruplex DNA. The experiment is described as follows: Binding affinity to c-KIT1 G4 quadruplex DNA (unknown origin) by CD spectroscopy analysis. It is filed as nucleic-acid assay.
In experiment [12] the test system is Quadruplex DNA. The experiment is described as follows: Binding affinity to 22AG_K G4 quadruplex DNA (unknown origin) assessed as change in melting temperature at 1:2 G4:ligand ratio by UV analysis (reference value: 60.1 degreeC). In kind it is nucleic-acid assay.

As a reminder, the ΔTm is the change in melting temperature against a reference sample. Take `N=C(N)Nc1ccc(Sc2ccc(NC(=N)NC(=O)Nc3ccc(-c4c5nc(c(-c6ccccc6)c6ccc([nH]6)c(-c6ccccc6)c6nc(c(-c7ccccc7)c7ccc4[nH]7)C=C6)C=C5)cc3)cc2)cc1`: the ΔTm in experiment [1] is 1 °C; in [2], -4.9 °C; in experiment [3] it was > 20 °C.

In the case of `N=C(N)Nc1ccc(S(=O)(=O)c2ccc(NC(=N)NC(=O)Nc3ccc(-c4c5nc(c(-c6ccccc6)c6ccc([nH]6)c(-c6ccccc6)c6nc(c(-c7ccccc7)c7ccc4[nH]7)C=C6)C=C5)cc3)cc2)cc1`, the ΔTm is 2.91 °C in experiment [4]; -7.84 °C in [5]; 2.42 °C in [6]; 0.02 °C in [7]; 10.2 °C in experiment [9]; -1.49 °C in experiment [10]. Moreover, in experiment [12], the shift in melting temperature (ΔTm) was -1.05 °C. In addition, the result in [8] and in [11] was inactive.

On to `N=C(N)Nc1ccc(Oc2ccc(NC(=N)NC(=O)Nc3ccc(-c4c5nc(c(-c6ccccc6)c6ccc([nH]6)c(-c6ccccc6)c6nc(c(-c7ccccc7)c7ccc4[nH]7)C=C6)C=C5)cc3)cc2)cc1`, for which the ΔTm was 2.2 °C in experiment [1], -2.7 °C in experiment [2] and > 20 °C in experiment [3].
